{"source": "patent US5426186A", "about": "(priority 1993, dated 1995)", "note": "Where a name gives a salt, the structure may show the parent alone."}
{"biological_target": "GABAa receptor", "test": "GABAa receptor binding assay, displacement of 3H-RO15-1788 from rat cortical tissue", "details": "0.5 nM 3H-RO15-1788, rat cortical homogenate, 4° C., nonspecific binding with 1.0 μM diazepam", "description": "The pharmaceutical utility of compounds of this invention are indicated by the following assay for GABAa receptor activity.\nAssays are carried out as described in Thomas and Tallman (J. Bio. Chem. 156: 9838-9842, J. Neurosci. 3:433-440, 1983). Rat cortical tissue is dissected and homogenized in 25 volumes (w/v) of 0.05M Tris HCl buffer (pH 7.4 at 4° C.). The tissue homogenate is centrifuged in the cold (4°) at 20,000×g for 20'. The supernatant is decanted and the pellet is rehomogenized in the same volume of buffer and again centrifuged at 20,000×g. The supernatant is decanted and the pellet is frozen at -20° C. overnight. The pellet is then thawed and rehomogenized in 25 volume (original wt/vol) of buffer and the procedure is carried out twice. The pellet is finally resuspended in 50 volumes (w/vol of 0.05M Tris HCl buffer (pH 7.4 at […]).\nIncubations contain 100 μl of tissue homogenate, 100 μl of radioligand 0.5 nM (^3 H-RO15-1788 specific activity 80 Ci/mmol), drug or blocker and buffer to a total volume of 500 μl. Incubations are carried for 30 rain at 4° C. then are rapidly filtered through GFB filters to separate free and bound ligand. Filters are washed twice with fresh 0.05M Tris HCl buffer (pH 7.4 at 4° C.) and counted in a liquid scintillation counter 1.0 μM diazepam is added to some tubes to determine nonspecific binding. Data are collected in triplicate determinations, averaged and % inhibition of total specific binding is calculated. Total Specific Binding=Total-Nonspecific. In some cases, the amounts of unlabeled drugs is varied and total displacement curves of binding are carried out. Data are converted to a form for the calculation of IC50 and Hill Coefficient (nH).", "units": {"IC50": "nM"}}
{"smiles": "CN(C)C(=O)C1CCc2[nH]c(=O)n3cc(-c4ccccc4F)nc3c2C1", "note": "(stereo not shown) [Compound 18, 9-(N,N-Dimethylcarbamyl)-2-(2-fluorophenyl)-7,8,9,10-tetrahydro-imidazo[1,2-c]-quinazolin-5(6H)-one]", "IC50": 10}
{"smiles": "O=c1[nH]c2c(c3nc(-c4ccccc4)cn13)CCC2", "note": "[Compound 12, 2-Phenyl-8,9-dihydro-7H-cyclopent[g]-imidazo[1,2-c]-pyrimidin-5(6H)-one]", "IC50": 400}
{"smiles": "Fc1ccccc1-c1cn2c(NCc3ccccc3)nc3c(c2n1)CCCC3", "note": "[Compound 31, 5-(N-benzylamino)-2-(2-fluorophenyl)-7,8,9,10-tetrahydro-imidazo[1,2-c]-quinazoline]", "IC50": 2000}
{"smiles": "CN(C)CC1CCc2[nH]c(=O)n3cc(-c4ccccc4F)nc3c2C1", "note": "(stereo not shown) [Compound 24, 9-(N,N-Dimethylaminomethyl)-2-(2-fluoropenyl)-7,8,9,10-tetrahydro-imidazo[1,2-c]-quinazolin-5(6H)-one monohydrochloride]", "IC50": 30}
{"smiles": "Nc1nc2c(c3nc(-c4ccccc4F)cn13)CCCC2", "note": "[Compound 33, 5-Amino-2-(2-fluorophenyl)-7,8,9,10-tetrahydro-imidazo[1,2-c]-quinazoline]", "IC50": 100}
{"smiles": "CCOC(=O)C1CCc2[nH]c(=O)n3cc(-c4ccccc4F)nc3c2C1", "note": "(stereo not shown) [Compound 1, 9-Carboethoxy-2-(2-fluorophenyl)-7,8,9,10-tetrahydro-imidazo[1,2-c]-quinazolin-5(6H)-one]", "IC50": 7}
{"smiles": "O=c1[nH]c2c(c3nc(-c4ccccc4)cn13)CCCCC2", "note": "[Compound 13, 2-Phenyl-8,9,10,11-tetrahydro-7H-cyclohept[g]-imidazo[1,2-c]pyrimidin-5(6H)-one]", "IC50": 800}
{"smiles": "COc1ccc(-c2cn3c(=O)[nH]c4c(c3n2)CCCC4)c(F)c1", "note": "[Compound 51, 2-(2-Fluoro-4-methoxyphenyl)-7,8,9,10-tetrahydro-imidazo[1,2-c]-quinazolin-5(6H)-one]", "IC50": 3}
{"smiles": "COc1ccc(-c2cn3c(=O)[nH]c4c(c3n2)CCCC4)cc1", "note": "[Compound 50, 2-(4-Methoxyphenyl)-7,8,9,10-tetrahydro-imidazo[1,2-c]-quinazolin-5(6H)-one]", "IC50": 50}
{"smiles": "O=c1[nH]c2c(c3nc(-c4ccccc4F)cn13)CCCC2", "note": "[Compound 5, 2-(2-Fluorophenyl)-7,8,9,10-tetrahydro-imidazo[1,2-c]-quinazolin-5(6H)-one]", "IC50": 7}
{"smiles": "CC(C)(C)OC(=O)NC1CCc2[nH]c(=O)n3cc(-c4ccccc4F)nc3c2C1", "note": "(stereo not shown) [Compound 28, 9-(t-Butoxycarbonylamino)-2-(2-fluorophenyl)-7,8,9,10-tetrahydro-imidazo[1,2-c]-quinazolin-5(6H)-one]", "IC50": 150}
{"smiles": "CC(C)OC(=O)C1CCc2[nH]c(=O)n3cc(-c4ccccc4F)nc3c2C1", "note": "(stereo not shown) [Compound 14, 9-Carboisopropoxy-2-(2-fluorophenyl)-7,8,9,10-tetrahydro-imidazo[1,2-c]-quinazolin-5(6H)-one]", "IC50": 10}
{"smiles": "CCOc1nc2c(c3nc(-c4ccccc4F)cn13)CCCC2", "note": "[Compound 39, 5-Ethoxy-2-(2-fluorophenyl)-7,8,9,10-tetrahydro-imidazo[1,2-c]-quinazoline]", "IC50": 5000}
